Measurements from US10144729B2, “Isoxazole analogs as FXR agonists and methods of use thereof” (Enanta Pharmaceuticals, Inc., priority 2016, dated 2018).

Molecular target: human FXR (NR1H4) (Homo sapiens (Human), UniProt Q96RI1)
Experiment: Human FXR (NR1H4) Assay (Gal4 promoter driven luciferase reporter, CHO cells)
Assay type: cell-based
Conditions: for Efficacy (%): FXR reporter assay in CHO cells, efficacy normalized to CDCA set as 100%
Description: Human FXR (NR1H4) Assay Determination of a ligand mediated Gal4 promoter driven transactivation to quantify ligand binding mediated activation of FXR. […] The principle application of this reporter assay system is to quantify functional activity of human FXR. The assay utilizes non-human mammalian cells, CHO (Chinese hamster ovary) cells engineered to express human NR1H4 protein (referred to as FXR). Reporter cells also incorporate the cDNA encoding beetle luciferase which catalyzes the substrates and yields photon emission. Luminescence intensity of the reaction is quantified using a plate-reading luminometer, Envision. Reporter Cells include the luciferase reporter gene functionally linked to an FXR responsive promoter. Thus, quantifying changes in luciferase expression in the treated reporter cells provides a sensitive surrogate measure of the changes in FXR activity. […] The assay is according to the manufacturer's instructions. […] Retrieve Reporter Cells from −80° C. storage. Perform a rapid thaw of the frozen cells by transferring a 10 ml volume of 37° C. cell recovery medium into the tube of frozen cells. Recap the tube of Reporter Cells and immediately place it in a 37° C. water bath for 5-10 minutes. Retrieve the tube of Reporter Cell Suspension from the water bath. Sanitize the outside surface of the tube with a 70% alcohol swab, and then transfer it into the cell culture hood. Dispense 90 μl of cell suspension into each well of the 96-well Assay Plate. Transfer the plate into 37° C. incubator, allowing the cells adherent to the bottom of the well. Dilute compounds in Dilution Plate (DP), and administrate to cells at Assay Plate (AP). DMSO content of the samples was kept at 0.2%. Cells were incubated for additional 22 hours before luciferase activities were measured. Thirty minutes before intending to quantify FXR activity, remove Detection Substrate and Detection Buffer from the refrigerator and place them in a low-light area so that they may equilibrate to room temperature. Remove the plate's lid and discard all media contents by ejecting it into an appropriate waste container. Gently tap the inverted plate onto a clean absorbent paper towel to remove residual droplets. Cells will remain tightly adhered to well bottoms. Add 100 μl of luciferase detection reagent to each well of the assay plate. Allow the assay plate to rest at room temperature for at least 5 minutes following the addition of LDR. Set the instrument (Envision) to perform a single 5 second “plate shake” prior to reading the first assay well. Read time may be 0.5 second (500 mSec) per well.

Chain of human FXR (NR1H4) (Q96RI1 whole entry, the tested form may be a part): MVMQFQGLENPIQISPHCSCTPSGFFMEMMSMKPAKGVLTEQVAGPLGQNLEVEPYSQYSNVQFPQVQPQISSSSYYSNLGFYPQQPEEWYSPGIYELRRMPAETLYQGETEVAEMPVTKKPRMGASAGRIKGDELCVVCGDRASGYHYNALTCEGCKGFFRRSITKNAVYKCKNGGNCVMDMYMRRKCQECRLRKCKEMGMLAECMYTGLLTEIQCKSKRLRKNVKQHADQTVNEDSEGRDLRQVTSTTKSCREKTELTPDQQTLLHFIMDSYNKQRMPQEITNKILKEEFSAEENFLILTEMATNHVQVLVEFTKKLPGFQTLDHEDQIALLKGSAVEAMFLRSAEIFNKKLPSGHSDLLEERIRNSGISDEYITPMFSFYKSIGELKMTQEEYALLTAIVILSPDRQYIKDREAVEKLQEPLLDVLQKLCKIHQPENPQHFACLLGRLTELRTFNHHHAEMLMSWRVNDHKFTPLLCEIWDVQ

Row | SMILES | EC50 [µM] | Efficacy (%)
1 | CN(C)S(=O)(=O)NC(=O)c1ccc([C@@H]2C[C@H]2c2ccc(OCc3c(-c4c(Cl)cccc4Cl)noc3C3CC3)cc2Cl)cc1 [Example 1a] | 0.1 to 1 | 271
2 | CN(C)S(=O)(=O)NC(=O)Nc1ccc([C@@H]2C[C@H]2c2ccc(OCc3c(-c4c(Cl)cccc4Cl)noc3C3CC3)cc2Cl)cc1 [Example 1b] | 1 to 10 | 194
3 | CC(C)(C)c1ccc(S(=O)(=O)NC(=O)c2ccc([C@@H]3C[C@H]3c3ccc(OCc4c(-c5c(Cl)cccc5Cl)noc4C4CC4)cc3Cl)cc2)cc1 [Example 2a] | 1 to 10 | 115
4 | O=C(NS(=O)(=O)C1CC1)c1ccc([C@@H]2C[C@H]2c2ccc(OCc3c(-c4c(Cl)cccc4Cl)noc3C3CC3)cc2Cl)cc1 [Example 2c] | 0.1 to 1 | 209
5 | CC(C)(C)c1ccc(S(=O)(=O)NC(=O)Nc2ccc([C@@H]3C[C@H]3c3ccc(OCc4c(-c5c(Cl)cccc5Cl)noc4C4CC4)cc3Cl)cc2)cc1 [Example 2d] | 0.1 to 1 | 236
